Patent US12077503B2, “Substituted cyclic amides and their use as herbicides” (FMC CORPORATION, priority 2015, dated 2024)

Columns and labels:
Type in all cases: in vivo
corn (Zea mays) = test: Test A postemergence; conditions: Zea mays, post-emergence, 240 h, 125 g ai/ha, postemergence; visual injury after approximately 10 d; 0 to 100 scale (0 no effect, 100 complete control)
How it was run: (§1)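 Visual injury, scored on a 0–100 scale relative to untreated controls, was recorded about 10 d after application. Treatments were a preemergence soil spray over planted seeds or a postemergence spray on plants at the one- to two-leaf stage, 2 to 10 cm tall, all in loam soil–sand blend in the greenhouse.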

[1] = system: wheat (Triticum aestivum); test: Test A postemergence; conditions: Triticum aestivum, post-emergence, 240 h, 125 g ai/ha, postemergence; visual injury after approximately 10 d; 0 to 100 scale (0 no effect, 100 complete control); read-out: Plant response rating, Wheat
How it was run: as §1

[2] = system: ryegrass, Italian (Italian ryegrass, Lolium multiflorum); test: Test A postemergence; conditions: Lolium multiflorum, post-emergence, 240 h, 125 g ai/ha, postemergence; visual injury after approximately 10 d; 0 to 100 scale (0 no effect, 100 complete control); read-out: Plant response rating, Ryegrass, Italian
How it was run: as §1

[3] = system: pigweed (Amaranthus retroflexus); test: Test A postemergence; conditions: Amaranthus retroflexus, post-emergence, 240 h, 125 g ai/ha, postemergence; visual injury after approximately 10 d; 0 to 100 scale (0 no effect, 100 complete control); read-out: Plant response rating, Pigweed
How it was run: as §1

[4] = system: sedge, umbrella (small-flower umbrella sedge, Cyperus difformis); test: Test B flooded paddy test; conditions: Cyperus difformis, Flood, 250 g ai/ha; scale of 0 to 100 where 0 is no effect and 100 is complete control; read-out: Sedge, Umbrella plant response rating
How it was run: (§2)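 Rating scale 0–100 (visual, vs untreated controls) after a 13–15 d greenhouse period; application to the flood layer, 3 cm above soil and maintained; plants at 2-leaf stage when treated.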

[5] = system: ducksalad (Heteranthera limosa); test: Test B flooded paddy test; conditions: Heteranthera limosa, Flood, 250 g ai/ha; scale of 0 to 100 where 0 is no effect and 100 is complete control; read-out: Ducksalad plant response rating
How it was run: as §2

rice (Oryra sativa) = test: Test B flooded paddy test; conditions: Oryza sativa, Flood, 250 g ai/ha; scale of 0 to 100 where 0 is no effect and 100 is complete control; read-out: Rice plant response rating
How it was run: as §2

[6] = system: barnyardgrass (Echinochloa crus-galli); test: Test B flooded paddy test; conditions: Echinochloa crus-galli, Flood, 250 g ai/ha; scale of 0 to 100 where 0 is no effect and 100 is complete control; read-out: Barnyardgrass plant response rating
How it was run: as §2

[7] = system: giant foxtail (Setaria faberii); test: Test A preemergence; conditions: Setaria faberi, pre-emergence, 240 h, preemergence, read-out: Plant response rating, Foxtail, Giant; for pest or weed control at 125 g/ha: 125 g ai/ha, visual rating after approx. 10 d, 0 to 100 scale where 0 is no effect and 100 is complete control; for pest or weed control at 500 g/ha: 500 g ai/ha, 0 to 100 scale, 0 = no effect, 100 = complete control
How it was run: as §1

[8] = system: ragweed (common ragweed, Ambrosia elatior); test: Test A preemergence; conditions: Ambrosia artemisiifolia, pre-emergence, 240 h, preemergence, read-out: Plant response rating, Ragweed; for pest or weed control at 125 g/ha: 125 g ai/ha, visual rating after approx. 10 d, 0 to 100 scale where 0 is no effect and 100 is complete control; for pest or weed control at 500 g/ha: 500 g ai/ha, 0 to 100 scale, 0 = no effect, 100 = complete control
How it was run: as §1

[9] = system: ryegrass, Italian (Italian ryegrass, Lolium multiflorum); test: Test A preemergence; conditions: Lolium multiflorum, pre-emergence, 240 h, preemergence, read-out: Plant response rating, Ryegrass, Italian; for pest or weed control at 125 g/ha: 125 g ai/ha, visual rating after approx. 10 d, 0 to 100 scale where 0 is no effect and 100 is complete control; for pest or weed control at 500 g/ha: 500 g ai/ha, 0 to 100 scale, 0 = no effect, 100 = complete control
How it was run: as §1

Kochia (Kochia scoparia) = test: Test A preemergence; conditions: Bassia scoparia, pre-emergence, 240 h, preemergence, read-out: Plant response rating, Kochia; for pest or weed control at 125 g/ha: 125 g ai/ha, visual rating after approx. 10 d, 0 to 100 scale where 0 is no effect and 100 is complete control; for pest or weed control at 500 g/ha: 500 g ai/ha, 0 to 100 scale, 0 = no effect, 100 = complete control
How it was run: as §1

[10] = system: pigweed (Amaranthus retroflexus); test: Test A preemergence; conditions: Amaranthus retroflexus, pre-emergence, 240 h, preemergence, read-out: Plant response rating, Pigweed; for pest or weed control at 125 g/ha: 125 g ai/ha, visual rating after approx. 10 d, 0 to 100 scale where 0 is no effect and 100 is complete control; for pest or weed control at 500 g/ha: 500 g ai/ha, 0 to 100 scale, 0 = no effect, 100 = complete control
[11] = system: barnyardgrass (Echinochloa crus-galli); test: Test A preemergence; conditions: Echinochloa crus-galli, pre-emergence, 240 h, preemergence, read-out: Plant response rating, Barnyardgrass; for pest or weed control at 125 g/ha: 125 g ai/ha, visual rating after approx. 10 d, 0 to 100 scale where 0 is no effect and 100 is complete control; for pest or weed control at 500 g/ha: 500 g ai/ha, 0 to 100 scale, 0 = no effect, 100 = complete control
How it was run: as §1

Structure (SMILES)	Corn plant response rating (crop injury, 0 = no effect, 100 = complete kill) at 125 g/ha (corn (Zea mays))	plant injury at 125 g/ha [1]	pest or weed control at 125 g/ha [2]	pest or weed control at 125 g/ha [3]	pest or weed control at 250 g/ha [4]	pest or weed control at 250 g/ha [5]	pest or weed control at 250 g/ha (rice (Oryra sativa))	pest or weed control at 250 g/ha [6]	pest or weed control at 125 g/ha [7]	pest or weed control at 500 g/ha [7]	pest or weed control at 125 g/ha [8]	pest or weed control at 500 g/ha [8]	pest or weed control at 125 g/ha [9]	pest or weed control at 500 g/ha [9]	pest or weed control at 125 g/ha (Kochia (Kochia scoparia))	pest or weed control at 500 g/ha (Kochia (Kochia scoparia))	pest or weed control at 125 g/ha [10]	pest or weed control at 500 g/ha [10]	pest or weed control at 125 g/ha [11]	pest or weed control at 500 g/ha [11]
Cc1ccc([C@H]2CN(C)C(=O)[C@@H]2C(=O)Nc2cccc(F)c2F)c(F)c1 [Compound 730]	20%	30%	40%	20%	0%	95%	0%	75%	90%	100%	50%	60%	20%	70%	70%	80%	30%	50%	90%	100%
Cc1ccc([C@H]2CN(C)C(=O)[C@@H]2C(=O)Nc2ccccc2S(C)(=O)=O)cc1C [Compound 734]	40%	50%	20%	0%	0%	100%	0%	60%	90%	100%	20%	50%	40%	90%	20%	90%	20%	80%	90%	100%
CCc1cc(CC)cc([C@H]2CN(C)C(=O)[C@@H]2C(=O)Nc2ccccc2F)c1 [Compound 735]	80%	50%	60%	20%	0%	40%	0%	60%	90%	90%	0%	0%	80%	90%	20%	80%	0%	20%	90%	90%
CCc1cc(CC)cc([C@H]2CN(C)C(=O)[C@@H]2C(=O)Nc2cccc(F)c2F)c1 [Compound 736]	90%	50%	80%	20%	0%	40%	0%	40%	90%	90%	0%	20%	90%	90%	20%	70%	0%	20%	90%	90%
